From patent US20220074923A1, “METHODS OF IDENTIFYING PARKIN-MEDIATED MITOPHAGY ACTIVATING AGENTS” (THE GOVERNING COUNCIL OF THE UNIVERSITY OF TORONTO, priority 2018, published 2022)

Tests used:
Assay type in all cases: cell-based
S2R+ cells = test: mitoSOX mitochondrial superoxide staining; conditions: co-treatment with paraquat
Procedure: A) Staining was performed with mitoSOX Red Mitochondrial Superoxide dye. B) Quantification of the fluorescence intensity of the mitoSOX probe in the indicated treatments (n=3). Data is presented as mean±s.e.m. P-values were determined by paired student's t-test, *P-value<0.05.
Whether SR3677 may protect against paraquat-induced phenotypes by interfering with paraquat's activity was also assessed. Paraquat gives rise to mitochondrial superoxide species that can be detected using mitoSOX, a fluorescent probe that is targeted to mitochondria, where it may be oxidized by superoxides. The oxidized mitoSOX species fluoresces upon encountering nucleic acid. The fluorescence intensity of Schneider's S2-R^+ cells, a cell line derived from dissociated embryos with a flat morphology amenable to imaging, was assessed following treatments with paraquat or paraquat and SR3677.

HEK293 GFP Parkin cells = test: High throughput small molecule screen for Parkin recruitment to mitochondria (high content imaging); conditions: 4 μM, 16 h, then CCCP 2 h; rank out of 480; low rank = activator of Parkin recruitment, high rank = inhibitor
Procedure: 10 uL of 0.1 mg/mL Poly-D-Lys solution was added to 384-well plates for 5 minutes, followed by a PBS wash. Plates were dried for at least 2 hours. 50 μL of 600 000 HEK293 GFP Parkin cell/mL of DMEM was dispensed into each well. After 24 hours incubation to allow the cells to adhere, 200 nL of small molecules (or DMSO in columns 1, 2, 23 and 24) were pinned. Following a 16-hour incubation, 200 nL of 5 mM CCCP were added to all wells except columns 1 and 2, into which 200 nL of DMSO was added. Following 2-hour incubation, cells were fixed with 4% paraformaldehyde (PFA) and stained with 50 μL of 1 μg/mL DAPI solution for 15 minutes. After the final PBS wash, plates were ready for high content microscopy.
Images were acquired on IN Cell Analyzer 6000 (GE Healthcare), equipped with sCMOS camera (2048×2048), and 20x/0.45 NA Plan Fluor objective (Nikon) in open aperture mode using 1×1 binning. Image analysis was performed using Columbus Image Analysis System (PerkinElmer). Nuclei were initially detected in DAPI channel, followed by whole cell segmentation in GFP channel. Using PhenoLOGIC machine learning plug-in, cells were split into 2 sub-populations: cells with even GFP-Parkin distribution and cells where GFP-Parkin was localized to mitochondria. The percentage of cells with mitochondrial GFP-Parkin was determined per well. The molecules were then rank ordered based on z-score, which is calculated using the formula: […]
where x is the percentage of cells with mitochondrial GFP-Parkin for a specific small molecule, μ is the average percentage of cells with mitochondrial Parkin in positive control columns 23 and 24, where cells are treated with CCCP only.
These cell lines were screened across 2 biological replicates with compounds from the kinase inhibitor (n=480) and Prestwick (n=1120) collections. The 3-day screening protocol consisted of (1) seeding cells, (2) pinning small molecules at 4 μM concentration and (3) inducing mitophagy with CCCP, followed by processing of plates for high content imaging. Following image acquisition, DAPI staining was used to segment cells within each image. Supervised machine learning was used to classify cells into two classes: (1) cells with cytosolic Parkin distribution and (2) those with Parkin localized to mitochondria. […] Compounds which increased the proportion of class 2 cells across 2 biological replicates, compared to the CCCP-only treated cells (FIG. 10), as indicated by their z-score (FIG. 11), were considered hits.

HeLa cells = test: HK2 distribution after mitochondrial damage; conditions: HeLa cells which lack endogenous Parkin
Text: Since HK2 is also a Parkin substrate, HeLa cells which lack endogenous Parkin were used to examine the effect of SR3677 treatment on HK2 distribution^43.

HK2 = HK2 mitochondrial fraction and phosphorylation (fractionation, Phos-tag immunoblot)
Procedure: (a) SH-SY5Y treated with either 0.5 μM SR3677 or with DMSO were separated into total cell cytosolic and mitochondrial fractions. Fractions were separated by SDS-PAGE and immunoblotting was performed with anti-HK2 and anti-ATP5A antibodies. (b) The proposed mechanism through which SR3677 increases Parkin recruitment. (c) Cells serum-starved for 2 hours were treated with either DMSO or SR3677 for 10 or 30 minutes prior to harvesting. Lysates were separated by SDS-PAGE and immunoblotting was performed with anti-HK2 and anti-actin antibodies. Samples were also run on Phos-tag gels in parallel and immunoblotting was performed with anti-HK2 antibody. (d) Densitometry analysis was performed to quantify HK2 levels in each sample, followed by (e) normalization to mitochondrial marker, CValpha. Average HK2/CValpha ratios are plotted (n=2 independent experiments). (f) Densitometry analysis was performed on the band indicated by the arrow in (c). The average intensity of the indicated band normalized to actin loading control is expressed[…] (n=3 independent experiments). P-values were determined by paired student's t-test for (b, f), *P<0.05. All error bars represent s.e.m. […]

[1] = tested on: HeLa cells stably expressing GFP parkin and mito-DsRed; test: Mitochondrial clearance assay
Procedure: HeLa cells stably expressing GFP parkin and mito-DsRed were seeded into 12-well plates containing coverslips and allowed to adhere overnight. Cells were then treated with DMSO or 0.5 μM SR3677 for 2 hours prior to addition of 10 μM CCCP for 24 hours. Cells were then washed with PBS, fixed with 4% PFA and washed with PBS again prior to the mounting of coverslips onto glass slides. Mitochondrial clearance was quantified by counting the number of cells in each treatment to retain mito-DsRed signal. 3 independent trials were performed with at least 50 cells quantified per trial.

In the case of `CN(C)CCOc1cc(-c2cn[nH]c2)ccc1NC(=O)[C@@H]1COc2ccccc2O1` [SR3677], the “paraquat-mediated increase in mitochondrial superoxide levels” value (S2R+ cells) is reported as “does prevent the paraquat-mediated increase in mitochondrial superoxide levels”, the “rank in the kinase inhibitor library screen (rank order by z-score)” value (HEK293 GFP Parkin cells) is reported as 71/480 and the “mitochondrial distribution of HK2 following mitochondrial damage” value (HeLa cells) is reported as “increases the mitochondrial distribution of HK2”. The “HK2 in the mitochondrial fraction” value (HK2; SH-SY5Y cells, 0.5 μM) was “More HK2 was observed in the mitochondrial fraction”, the “phosphorylation of HK2 (Phostag gels)” value (HK2; serum-starved cells, 10 or 30 minutes) was “Increased phosphorylation of HK2” and the “mitochondrial mass without CCCP” value ([1]; 0.5 μM SR3677, 24 hour DMSO treatment) was “retained mitochondrial mass”. For the same compound, the “% of cells that retained mito-DsRed” value ([1]; pre-treated with 0.5 μM SR3677, 24 hour 10 μM CCCP) was 28±8.21%.
